From ChEMBL document CHEMBL2157907, “Optimization of anti-Trypanosoma cruzi oxadiazoles leads to identification of compounds with efficacy in infected mice” (Bioorg Med Chem, 2012) come the findings set out here.

Series [1] has as its target Cruzipain (Trypanosoma cruzi, UniProt P25779). Description: Inhibition of Trypanosoma cruzi cruzain using Z-Phe-Arg-aminomethylcoumarin as substrate after 10 mins.
The target in series [2] is Cruzipain (Trypanosoma cruzi) (UniProt P25779). Put plainly: Inhibition of Trypanosoma cruzi cruzain using Z-Phe-Arg-aminomethylcoumarin as substrate at 100 uM after 10 mins.
The nature of series [3]: Cytotoxicity against BALB/c mouse splenocytes after 24 hrs by [3H]-thymidine incorporation assay. The series is classed as cell-based, Splenocyte. Conditions: read-out: LC50.
Series [4] has as its system Trypanosoma cruzi. Put plainly: Induction of mitochondria degeneration in trypomastigotes of Trypanosoma cruzi Y at 9.5 uM after 24 hrs by […] electron microscopic analysis. It is filed as functional, organism-based.
For series [5], the system named is Trypanosoma cruzi. Put plainly: Antitrypanosomal activity against trypomastigotes of Trypanosoma cruzi Y infected in BALB/c mouse assessed as reduction of parasite level in blood at 50 mg/kg, po administered after 5 days of postinfection qd for 5 days. It is filed as functional, organism-based. On the set-up: dose 50 mg/kg.
The subject of series [6] is Trypanosoma cruzi. Put plainly: Antitrypanosomal activity against trypomastigotes of Trypanosoma cruzi Y infected in rhesus monkey LLC-MK2 cells assessed parasite viability after 24 hrs. The series is classed as functional, organism-based. The conditions noted are these: LLC-MK2, 24 h.
Series [7] relates to Trypanosoma cruzi. Put plainly: Antitrypanosomal activity against trypomastigotes of Trypanosoma cruzi Y in BALB/c mouse peritoneal exudate macrophages assessed as reduction of parasite infection to cells at 10 ug/ml treated simultaneously with parasite measured after 2 hrs. It is filed as functional, organism-based.
For series [8], the system named is Trypanosoma cruzi. Put plainly: Induction of endoplasmic reticulum degeneration in trypomastigotes of Trypanosoma cruzi Y at 9.5 uM after 24 hrs by […] electron microscopic analysis. The series is classed as functional, organism-based.
Series [9] has as its system Trypanosoma cruzi. Put plainly: Induction of ultrastructural changes in trypomastigotes of Trypanosoma cruzi Y assessed as plasma membrane protrusions at 30 uM after 24 hrs by scanning electron microscopic analysis. The series is classed as functional.
Series [10] deals with Trypanosoma cruzi. Description: Induction of golgi apparatus degeneration in trypomastigotes of Trypanosoma cruzi Y at 9.5 uM after 24 hrs by […] electron microscopic analysis. It is filed as functional, organism-based.
Series [11] deals with Trypanosoma cruzi. Put plainly: Antitrypanosomal activity against epimastigotes of Trypanosoma cruzi Y after 5 days. The series is classed as functional, organism-based. The conditions noted are these: 120 h.
In series [12] the test system is Trypanosoma cruzi. Description: Antitrypanosomal activity against trypomastigotes of Trypanosoma cruzi Y infected in BALB/c mouse peritoneal exudate macrophages assessed as reduction of parasite level at 10 ug/ml after 4 days. The series is classed as functional, organism-based.
The test system of series [13] is Trypanosoma cruzi. Description: Induction of kinetoplast enlargement in trypomastigotes of Trypanosoma cruzi Y at 9.5 uM after 24 hrs by […] electron microscopic analysis. The series is classed as functional, organism-based.

Active and inactive are the calls of the source. The rule behind the calls is not given here. A value given as a limit tells only on which side of the number the result lay.

Cruzipain (Trypanosoma cruzi), sequence (P25779 123-467 limits assumed): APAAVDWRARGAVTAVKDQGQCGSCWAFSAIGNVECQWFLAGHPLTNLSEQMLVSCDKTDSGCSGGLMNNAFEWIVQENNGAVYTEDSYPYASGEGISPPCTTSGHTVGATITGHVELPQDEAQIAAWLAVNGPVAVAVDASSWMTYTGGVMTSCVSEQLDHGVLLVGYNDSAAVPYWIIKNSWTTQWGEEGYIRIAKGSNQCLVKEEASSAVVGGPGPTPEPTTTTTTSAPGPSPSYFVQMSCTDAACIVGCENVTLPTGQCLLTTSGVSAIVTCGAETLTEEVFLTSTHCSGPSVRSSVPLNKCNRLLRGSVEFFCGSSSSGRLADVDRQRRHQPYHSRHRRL
Cruzipain, sequence (P25779 whole entry): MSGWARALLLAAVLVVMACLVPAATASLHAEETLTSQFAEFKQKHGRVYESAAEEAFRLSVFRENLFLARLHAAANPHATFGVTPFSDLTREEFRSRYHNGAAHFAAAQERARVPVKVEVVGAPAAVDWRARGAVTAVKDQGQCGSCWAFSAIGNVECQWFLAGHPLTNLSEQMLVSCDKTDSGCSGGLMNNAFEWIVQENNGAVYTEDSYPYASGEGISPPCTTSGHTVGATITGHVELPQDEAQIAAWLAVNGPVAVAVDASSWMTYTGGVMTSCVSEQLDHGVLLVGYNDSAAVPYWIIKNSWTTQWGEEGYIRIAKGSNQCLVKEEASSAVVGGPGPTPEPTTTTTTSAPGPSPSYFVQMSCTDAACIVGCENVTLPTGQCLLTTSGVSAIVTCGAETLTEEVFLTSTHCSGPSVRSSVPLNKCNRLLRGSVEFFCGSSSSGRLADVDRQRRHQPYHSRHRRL

`COc1cc(/C=N/NC(=O)c2nc(-c3ccc(Br)cc3)no2)ccc1O`: in series [1], the IC50 was 0.2 µM. In [2], the inhibition is 100%. In [3], the CC50 at 24 h was > 100 µg/mL.
Turning to `COc1cc(/C=N/NC(=O)c2nc(-c3ccc(Cl)cc3)no2)ccc1O`, in series [1], 0.04 µM corresponded to half-maximal inhibition (IC50). The inhibition in series [2] worked out at 92%. The CC50 at 24 h in series [3] was > 100 µg/mL.
`COc1ccc(-c2noc(C(=O)N/N=C/c3ccc4c(c3)OCO4)n2)cc1` showed an inhibition in [2] of 44%. The CC50 at 24 h in series [3] was > 100 µg/mL.
With `O=C(N/N=C/c1ccc2c(c1)OCO2)c1nc(-c2ccc(F)cc2)no1`, the result in [4], in series [7], in [8], in series [10], in series [12] and in series [13] was Active. Moreover, the result in [5] was inactive. In addition, the IC50 turned out to be 9.5 µM in series [6] and 12.2 µM in series [11]. The inhibition in [2] is 34%. The Activity in [9] was determined as 80%. Besides, in series [3], the CC50 at 24 h was > 100 µg/mL.
Regarding `O=C(N/N=C/c1ccc2c(c1)OCO2)c1nc(-c2ccc([N+](=O)[O-])cc2)no1`, the CC50 at 24 h in series [3] is > 100 µg/mL.
In series [2], `COc1cc(/C=N/NC(=O)c2nc(-c3ccc(F)cc3)no2)ccc1O` yielded an inhibition of 63%. Besides, the CC50 at 24 h in series [3] was > 100 µg/mL.
For the compound `O=C(N/N=C/c1ccc2c(c1)OCO2)c1nc(-c2ccccc2)no1`, the inhibition in series [2] was 32%. Moreover, the CC50 at 24 h in series [3] is > 100 µg/mL.
Compound `COc1ccc(-c2noc(C(=O)N/N=C/c3ccc(O)c(OC)c3)n2)cc1` came in with an inhibition in series [2] of 35%. For the same compound, the CC50 at 24 h in [3] was > 100 µg/mL.
Compound `COc1cc(/C=N/NC(=O)c2nc(-c3ccc([N+](=O)[O-])cc3)no2)ccc1O` showed an inhibition in series [2] of 47%. In addition, the CC50 at 24 h in series [3] is > 100 µg/mL.

By IC50 is commonly meant the concentration needed to halve the response being measured. What is called inhibition is how much of the control response was suppressed.
